The values below come from article PMC6048268, “Resveratrol Inhibits Key Steps of Steroid Metabolism in a Human Estrogen-Receptor Positive Breast Cancer Model: Impact on Cellular Proliferation” (Frontiers in Pharmacology, 2018).

One assay relates to MCF-7 cells. In words: Cell proliferation, Casy cell counting, MCF-7. It is filed as cell-based, human. Here is the method:
(§1) MDA-MB-231 and MCF-7 breast cancer cells were purchased from the American Type Culture Collection (ATCC; Manassas, VA, United States) and routinely cultivated at 37°C (95% humidity and 5% CO2) in phenolred-free Dulbecco’s modified Eagle medium F-12 (DMEM/F-12), fortified with 1% PenStrep®-solution and 10% fetal bovine serum (Invitrogen; Thermo Fisher Scientific, Inc., Waltham, MA, United States). All experiments were performed during the exponential growth phase of both cell lines. For the experiments, cells were seeded in 6-well-plates at a density of 1.0 × 10^6 cells per well and allowed to attach for 24 h.
(§2) Prior to cell counting with a Casy® TT Cell Counter (OLS OMNI Life Science, Bremen, Germany), the supernatant medium was removed and cells were detached using 400 μl TrypLe® solution (Invitrogen). All experiments were performed in triplicate, and the data were reported as the means ± standard deviation of all values.

The subject of the next assay is MDA-MB-231 cells. The assay is described as follows: Cell proliferation, Casy cell counting, MDA-MB-231. The format is cell-based, human. Here is the method:
as §1, §2

A further assay deals with E2 levels. Further details: method as in El-Sayed and Bayan, 2015. Conditions: mice, 4 mg/kg i.p. for 7 days; ref El-Sayed and Bayan, 2015; cited from earlier work.
Assay [1] addresses estrogen sulfation, S9 fractions from human jejunum. Further details: method as in Furimsky et al. (2008). As to conditions: ref Furimsky et al. (2008), read-out: Ki, inhibition of estrogen sulfation; cited from earlier work.
A further assay concerns SULT2A1 mRNA. The assay is described as follows: Real-time PCR, SULT2A1 mRNA expression in MCF-7 cells. It is filed as cell-based, human. As to conditions: 10 μM RES, 24 and 48 h, data not shown. The protocol:
MCF-7 breast cancer cells were seeded in 6-well plates at a density of 1.0 × 10^6 cells per well and allowed to attach overnight. […] Expression profiling of genes of interest was performed as detailed previously ([Mechtcheriakova et al., 2007]; [Meshcheryakova et al., 2016]). Upon treatment, total RNA was isolated using peqGOLD TriFAST^TM reagent (VWR, Vienna, Austria) according to the manufacturer’s protocol. 1 μg RNA was used for cDNA generation using the High Capacity cDNA Reverse Transcription Kit (Thermo Fisher Scientific, Inc.) according to the instructions of the manufacturer. Real-time PCR analysis was performed in the 96-well plate format on a QuantStudio 12K Flex Real-Time PCR System (Thermo Fisher Scientific, Inc.). SULT1A1 and SULT2A1 were detected using the corresponding TaqMan Assays (Thermo Fisher Scientific, Inc.). […] HKGs primers were self-designed using the Primer Express 3.0 software (Thermo Fisher Scientific, Inc.) and validated using the Human Total RNA Master Panel (TaKaRa Bio, Inc., Saint-Germain-en-Laye, France), as described before ([Mechtcheriakova et al., 2007], [2011]); Primers: UBC forward: […]; UBC reverse: […]; GAPDH forward: […]; GAPDH reverse: […]; ACTB forward: […]; ACTB reverse: […]. For relative quantification, data were analyzed by applying the ΔΔCT method. […]
In general terms: Quantitative PCR measures a nucleic acid by following its amplification.

The next assay deals with SULT1A1 mRNA. In words: Real-time PCR, SULT1A1 mRNA expression in MCF-7 cells. The format is cell-based, human. Conditions: 10 μM RES; for down-regulation of SULT1A1 mRNA: non-significant. The protocol: MCF-7 breast cancer cells were seeded in 6-well plates at a density of 1.0 × 10^6 cells per well and allowed to attach overnight. […] Expression profiling of genes of interest was performed as detailed previously ([Mechtcheriakova et al., 2007]; [Meshcheryakova et al., 2016]). Upon treatment, total RNA was isolated using peqGOLD TriFAST^TM reagent (VWR, Vienna, Austria) according to the manufacturer’s protocol. 1 μg RNA was used for cDNA generation using the High Capacity cDNA Reverse Transcription Kit (Thermo Fisher Scientific, Inc.) according to the instructions of the manufacturer. Real-time PCR analysis was performed in the 96-well plate format on a QuantStudio 12K Flex Real-Time PCR System (Thermo Fisher Scientific, Inc.). SULT1A1 and SULT2A1 were detected using the corresponding TaqMan Assays (Thermo Fisher Scientific, Inc.). […] HKGs primers were self-designed using the Primer Express 3.0 software (Thermo Fisher Scientific, Inc.) and validated using the Human Total RNA Master Panel (TaKaRa Bio, Inc., Saint-Germain-en-Laye, France), as described before ([Mechtcheriakova et al., 2007], [2011]); Primers: UBC forward: […]; UBC reverse: […]; GAPDH forward: […]; GAPDH reverse: […]; ACTB forward: […]; ACTB reverse: […]. For relative quantification, data were analyzed by applying the ΔΔCT method. Expression levels of target genes were normalized to the average of the HKGs and shown relative to unstimulated cells (0 h time-point).

The subject of a further assay is serum E2 concentrations. More on the design: method as in Chow et al., 2014. As to conditions: post-menopausal women, 1 g RES once a day for 12 weeks, non-significant; ref Chow et al., 2014; cited from earlier work.
For assay [2], the target named is estrogen sulfation, S9 fractions from human liver. Further details: method as in Furimsky et al. (2008). As to conditions: ref Furimsky et al. (2008), read-out: Ki, inhibition of estrogen sulfation; cited from earlier work.

The IC50 is the concentration that gives 50% inhibition. In general, Ki refers to a measure of affinity in units of concentration, obtained from inhibition or displacement. As for `Oc1ccc(/C=C/c2cc(O)cc(O)c2)cc1` [RES, 3,5,4′-trihydroxy-trans-stilbene], the “increase in cell counts on co-incubation” value in the assay on MCF-7 cells (5 μM RES + 100 nM E1, 48 h, vs control without E1) is reported as “twofold increase in cell counts”. The cell number in the assay on MCF-7 cells (5 μM RES, 48 h) is given as 2.92 ± 0.16 × 10^6 cells; in the assay on MCF-7 cells (100 μM RES, 48 h), 1.08 ± 0.11 × 10^6 cells. Besides, in the assay on MCF-7 cells (10 μM RES, 48 h), the “effect on cellular proliferation” value was “no effect”. In the assay with MCF-7 cells (Homo sapiens, MCF7, 48 h, read-out: stimulation of cellular growth (maximal effect)), the Emax at 5 µM was 21.2 ± 3.3%. The IC50 with MCF-7 cells (Homo sapiens, MCF7, MCF-7, 48 h, steroid-deprived, read-out: IC50 (inhibition of cell growth)) came to 37.4 ± 14.5 µM; in the assay with MDA-MB-231 cells (Homo sapiens, MDA-MB-231, 48 h, steroid-deprived, read-out: IC50 (inhibition of cell growth)), 15.1 ± 4.9 µM. The “number of viable cells” value in the assay on MDA-MB-231 cells (2.5 μM RES, 48 h, seeded 1.0 × 10^6) is 2.03 ± 0.16 × 10^6 cells. Moreover, in the assay with MDA-MB-231 cells (100 μM RES, 48 h), the “reduction of number of viable cells” value is listed as 68.6 ± 4.7%. For the same compound, the “effect of simultaneous incubation with RES and E1 on cell proliferation” value with MDA-MB-231 cells (RES 0–100 μM with E1, 48 h) was “no observable effect”. For the same compound, the “increase in E2 levels” value with E2 levels was “approximately twofold increase”. Moreover, the Ki is 0.6 µM in assay [1] and 1.1 µM in assay [2]. For the same compound, in the assay with SULT2A1 mRNA, the “effect on SULT2A1 expression” value was “marginally down-regulated”. For the same compound, the “down-regulation of SULT1A1 mRNA” value in the assay on SULT1A1 mRNA (24 h) was 23.6 ± 13.0%; in the assay with SULT1A1 mRNA (48 h) it was 30.4 ± 11.0%. In the assay with SULT1A1 mRNA (up to 4 h), the “effect on transcription of SULT1A1” value is “did not affect”. In the assay on serum E2 concentrations, the “increase in serum E2 concentrations” value is recorded as 22.4%.
